Key:
BaF3 cells = assay: IL-3-induced c-fos promoter luciferase reporter assay; type: cell-based; conditions: IL-3 stimulation
Method: Therefore, the role of Gab2 in IL-3-induced c-fos promoter activity was assessed. For c-fos reporter assays, 1.5 μg of c-fos promoter (nt −710 to +42)-luciferase reporter were used (Hu et al., Science 268, 100-102 (1995)). STAT-driven transctivation was measured using 1.5 μg of a GAS-luciferase reporter (Jaster et al., Mol. Cell. Biol. 3364-3372 (1997)). For Elk assays, Gal4-Elk-1 (2 μg) and Gal4-luciferase (1 μg) were used (Bennett et al., Mol. Cell. Biol. 16, 1189-1202 (1996)). Cells were electroporated at 300V/800 μF, transferred to fresh RPMI/10% WEHI supernatant/10% FCS and, after three hours, were starved in RPMI/10% FCS. Twelve hours post-transfection, transfected cells (approximately 10^6/condition) were incubated in RPMI/10% FCS alone or with murine IL-3 (1 ng/ml) for two hours. Luciferase assays were performed with a kit (Promega, Madison, Wis.). Promoter activities were normalized to Renilla luciferase levels.

MCF10A cells [1] = conditions: treated on days 1 and 2, acini at 9 days (FIG. 15G)
MCF10A cells [2] = assay: Proliferation of MCF10A cells in three-dimensional culture (Ki67 staining); type: cell-based, human; conditions: Gab2-overexpressing MCF10A, days 6 and 15 of culture; UO 15 μM on days 13 and 14 (FIG. 15F)

SMILES | IL-3-induced c-fos luciferase activity (BaF3 cells) | cooperation of Gab2 with Neu (MCF10A cells [1]) | effects of Gab2 overexpression on the proliferation of MCF10A (MCF10A cells [2])
COc1cccc(-c2cc(=O)c3ccccc3o2)c1N [PD98059] | ablated | – | –
N#CC(=C(/N)Sc1ccccc1N)/C(C#N)=C(/N)Sc1ccccc1N [UO126] | – | blocked | abolished

— patent publication US20060265769A1, “Gab2 (p97) gene and methods of use thereof” (Beth Israel Deaconess Medical Center, Inc., priority 2000, published 2006)
